Earlier results as cited in publication PMC8969080 (Dalton transactions (Cambridge, England : 2003), 2022).
Where two headings read alike, the source gives them in different places.

Conditions: 1:1 Metal/Ligand, 50 μM

SMILES: O=C(O)CN(CCN(CC(=O)O)CC(=O)O)CCN(CC(=O)O)CC(=O)O [DTPA, diethylenetriaminepentaacetic acid]
- Calculated pM (−log[M]free; M = Cu^2+) (pH 6.6): 9.7
- Calculated pM (−log[M]free; M = Cu^2+) (pH 7.4): 10.7
